The values below are quoted from earlier work in patent US20240062912A1, “METHODS FOR DETERMINING LIVER FUNCTION COMPRISING A MULTI-COMPARTMENTAL MODEL” (HepQuant, LLC, priority 2022, published 2024).

The conditions of this series: cited from earlier work.
The mark [1] stands for this setting: healthy controls, previous studies.

`[2H]C1([2H])C[C@@]2(C)[C@H](C[C@@H](O)[C@@H]3[C@@H]2C[C@H](O)[C@]2(C)[C@@H]([C@H](C)CCC(=O)O)CC[C@@H]32)C([2H])([2H])[C@@H]1O` [d4-CA, cholic-acid-2,2,4,4-d4]: where the note is “diseased liver”, the SHUNT is listed as 30-90%, the STAT is 0.6 to 5 µM and the “portal HFR (FLOW)” value is reported as 20 to 2 mL/min/kg. Under setting [1], the average HFR (FLOW) was 30 mL/min/kg, the “average SHUNT” value was roughly 20% and the “average STAT value” was roughly 0.4.
